Laboratory results taken from US10584159B2, “Renilla based biosensors for monitoring biomolecule localization and trafficking in cells” (The Royal Institution for the Advancement of …, priority 2014, dated 2020).

Tests used:
AT1R [1] = target: T1, AT1R (Homo sapiens, UniProt P30556); assay: β-arrestin2 targeting to endosomes BRET (AT1R/βarr2-RlucII/rGFP-endofinFYVE); assay type: cell-based
T1 construct: expressed in transfected cells; host or cells: HEK293SL
T1 sequence (P30556 1-359): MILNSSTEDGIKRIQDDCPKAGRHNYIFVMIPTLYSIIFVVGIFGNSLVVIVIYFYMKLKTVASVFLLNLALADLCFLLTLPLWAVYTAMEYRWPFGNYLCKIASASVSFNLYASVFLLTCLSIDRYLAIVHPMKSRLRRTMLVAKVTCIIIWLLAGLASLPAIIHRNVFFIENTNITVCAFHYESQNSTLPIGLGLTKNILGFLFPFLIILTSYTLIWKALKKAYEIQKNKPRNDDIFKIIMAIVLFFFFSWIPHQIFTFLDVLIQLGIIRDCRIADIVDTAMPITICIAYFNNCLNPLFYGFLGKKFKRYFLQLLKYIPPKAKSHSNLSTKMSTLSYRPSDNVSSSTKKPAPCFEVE
Experimental: (§1) BRET measurements for FIGS. 1B to 9D, 25D to 25F. The following day of transfection, cells were detached and replated onto poly-ornithine coated white 96-well plate at a density of 25,000 cells per well. The next day, cells were washed once with pre-warmed Tyrode's buffer (140 mM NaCl, 2.7 mM KCl, 1 mM CaCl2, 12 mM NaHCO3, 5.6 mM D-glucose, 0.5 mM MgCl2, 0.37 mM NaH2PO4, 25 mM HEPES, pH 7.4), and then stimulated with either various concentrations of ligands in Tyrode's buffer for the indicated time, or single concentration of ligands for various times at 37° C. For recycling experiment, after stimulating the cells with the ligands for 30 min at 37° C., they were washed either three times with ice-cold Tyrode's buffer or once with Tyrode's buffer/three times with acid (50 mM sodium citrate, pH 4.0)/two times with Tyrode's buffer. All the washing steps were performed on ice. Cells were then further incubated with Tyrode's buffer at 37° C. in a water bath for 45 min. The cell-permeable substrate, coelenterazine 400a was added at a final concentration of 5 μM in Tyrode's buffer 3-4 min before BRET measurements. Measurements were performed by using Synergy2 (BioTek®) microplate reader with a filter set of 410±80 nm and 515±30 nm for detecting the RlucII Renilla luciferase (donor) and GFP10 or rGFP (acceptor) light emissions, respectively. The BRET signal was determined by calculating the ratio of the light intensity emitted by the GFP10 or rGFP over the light intensity emitted by the RlucII. All the BRET measurements were performed in triplicate at 37° C.

AT1R [2] = target: T1, AT1R; assay: PKN-based RhoA activation BRET assay (PKN-crib-RlucII/rGFP-CAAX) with AT1R; assay type: cell-based; details: 100 nM Ubo-Qic 30 min, ligand 4 min
Experimental: as §1, with “Cells were then further incubated with Tyrode's buffer at 37° C. in a water bath for 45 min.” left out, “Measurements were performed by using Synergy2 (BioTek®) microplate reader with a filter set of 410±80 nm and 515±30 nm for detecting the RlucII Renilla luciferase (donor) and GFP10 or rGFP (acceptor) light emissions, respectively.” left out
PKN-based RhoA activation assay. For FIGS. 25B-D, HEK293SL cells were grown in DMEM supplemented with 6% fetal bovine serum (FBS) and 20 μg/ml gentamycin, at 37° C. Cells were seeded at a density of 7.5×10^5 cells per 100 mm dishes and were transiently transfected the next day with constructs encoding AT1R (3 μg) along with PKN-crib-RlucII (90 ng) and rGFP-CAAX (480 ng) using calcium phosphate method as described previously. After 24 h, cells were detached and seeded onto poly-ornithine-coated 96-well white plates at a density of 25 000 cells per well in media. The next day, cells were washed once with Tyrode's buffer and left in 80 μl of Tyrode's buffer at 37° C. When indicated, cells were treated with Ubo-Qic 100 nM for 30 min or C3 toxin for 3 μg/ml (in FIG. 25I), 4 hours at 37° C. Cell stimulation and BRET measurements were done at RT. BRET signals were monitored by addition of Coel-400a to a final concentration of 5 μM using a Synergy2 (BioTek®) microplate reader. […] For FIG. 25B, a transfection mix of 200 ng of TPαR, 20 ng PKN-RlucII, 600 ng CAAX-rGFP, complemented to 2 μg with ssDNA and PEI at a ratio of PEI:DNA of 3:1, is added to 3 ml of Hek293SL (350 000 cells/ml). Cells were seeded on poly-D-lysine pretreated plates. […] Cells were stimulated for 2 min with the indicated doses of U46619. […] For FIGS. 25I and J, a transfection mix of 200 ng of TPαR, 20 ng PKN-RlucII, 600 ng CAAX-rGFP, complemented to 2 μg with ssDNA and PEI at a ratio of PEI:DNA of 3:1, is added to 3 ml of Hek293SL (350,000 cells/ml). Cells were seeded on poly-D-lysine pretreated plates. 24 h post-transfection, the Rho inhibitor (CT04; Cytoskeleton, Inc) was added when indicated, overnight at final concentration 2 μg/ml. 48 h post-transfection, cells were washed and preincubated in Tyrode +1 mM CaCl2 at 37° C. for 60 min then treated, as indicated, with 100 nM of U46619 or 1 μg/ml of Rho activator II (CN03; Cytoskeleton, Inc) for 1 min at 37° C. […] BRET was measured at 37° C., using a Tristar Microplate Reader (Berthold Technologies).

AT1R [3] = target: T2, AT1R (Homo sapiens, UniProt P30556); assay: AT1R trafficking to endosomes BRET (AT1R-RlucII/rGFP-endofinFYVE); assay type: cell-based; set-up: expressed in transfected cells; host or cells: HEK293SL (HEK293 for the screen)
T2 sequence (P30556 with tags, fused parts or gaps): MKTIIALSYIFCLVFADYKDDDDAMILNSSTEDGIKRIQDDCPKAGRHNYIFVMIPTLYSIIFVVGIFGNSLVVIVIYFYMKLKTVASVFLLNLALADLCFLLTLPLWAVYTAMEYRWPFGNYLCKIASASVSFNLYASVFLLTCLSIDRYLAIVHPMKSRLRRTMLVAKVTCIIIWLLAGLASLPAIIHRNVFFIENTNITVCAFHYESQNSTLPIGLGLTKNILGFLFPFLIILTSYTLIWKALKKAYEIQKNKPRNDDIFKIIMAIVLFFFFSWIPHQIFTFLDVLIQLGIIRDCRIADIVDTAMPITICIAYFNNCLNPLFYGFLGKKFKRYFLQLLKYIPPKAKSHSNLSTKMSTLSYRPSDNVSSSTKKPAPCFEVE
Experimental: as §1, with “Cells were then further incubated with Tyrode's buffer at 37° C. in a water bath for 45 min.” left out, “Measurements were performed by using Synergy2 (BioTek®) microplate reader with a filter set of 410±80 nm and 515±30 nm for detecting the RlucII Renilla luciferase (donor) and GFP10 or rGFP (acceptor) light emissions, respectively.” left out
(§2) Data Analysis. Estimation of the t1/2 and the EC50 values for ligand-mediated endocytosis were calculated using the GraphPad® Prism curve fitting program The curves presented throughout this study, representing the best fits, and were generated using this GraphPad® Prism program as well.

AT1R [4] = target: T2, AT1R; assay: AT1R sorting to rab4 vesicles BRET (AT1R-RlucII/rGFP-rab4); assay type: cell-based; set-up: expressed in transfected cells; host or cells: HEK293SL (HEK293 for the screen); details: 100 nM AngII, 100 nM SI, 1 μM DVG
Experimental: as §1, with “Cells were then further incubated with Tyrode's buffer at 37° C. in a water bath for 45 min.” left out, “Measurements were performed by using Synergy2 (BioTek®) microplate reader with a filter set of 410±80 nm and 515±30 nm for detecting the RlucII Renilla luciferase (donor) and GFP10 or rGFP (acceptor) light emissions, respectively.” left out

[5] = system: V2R mutants (Y128S and W164S); assay: BRET pharmacological chaperone rescue assay (rGFP-CAAX), V2R mutants; assay type: cell-based, human; details: 10 μM, 16 h, BRET1
Experimental: BRET assay for evaluation of PC rescue of cell surface expression and functionality (sequestration assay). In FIGS. 12A to 18E, Hek293 cells were transiently transfected using PEI as described in this section. The DNA transfected per well of a 96-well plate is as follow: in FIGS. 12A and 12B, with 2.4 ng of hMC4R-RlucII encoding construct and an increasing quantity of rGFP-CAAX (Kras) up to 9.6 ng for FIGS. 12A and for 12B, rGFP-PB up to 9.6 ng; in FIGS. 13A to 13C with 0.6, 1.2 or 2.4 ng of hMC4R-RlucII and 4.8 ng of rGFP-CAAX (Kras); in FIG. 13D with 2.4 ng of polycistronic rGFP-CAAX(Kras)/MC4R-RlucII construct; in FIG. 13E with 1.2 ng of hV2R-RlucII and 4.8 ng of rGFP-CAAX (Kras); in FIGS. 14A to 16B with 2.4 ng of hMC4R-RlucII and 7.2 ng of rGFP-CAAX (Kras); Hek293 cells stably expressing rGFP-CAAX(Kras) were transfected with 0.6, 1.2 or 2.4 ng of hMC4R-RlucII; in FIG. 17A or 0.6, 1.2 or 2.4 ng of hV2R_Y128S-RlucII; in FIG. 17B; in FIGS. 18A and 18B with 0.6, 1.2 or 2.4 ng of hERG-RlucII and 4.8 ng of rGFP-CAAX (Kras); and in FIGS. 18C-18E with 0.6 ng of hERG-RlucII and 7.2 ng of rGFP-CAAX (Kras). […] For the BRET assay, cells were washed once with PBS and left in Tyrode's buffer. […] BRET values were determined by calculating the ratio of the light emitted by the acceptor over the light emitted by the RlucII.

AT1R [6] = target: T2, AT1R; assay: AT1R endocytosis BRET at plasma membrane (AT1R-RlucII/lyn-rGFP); assay type: cell-based; set-up: signal peptide-Flag-human AT1R (spFlag-AT1R); signal peptide (N); expressed in transfected cells; host or cells: HEK293SL (HEK293 for the screen); details: 0.45 M sucrose 20 min
Experimental: as §1, with “Cells were then further incubated with Tyrode's buffer at 37° C. in a water bath for 45 min.” left out, “Measurements were performed by using Synergy2 (BioTek®) microplate reader with a filter set of 410±80 nm and 515±30 nm for detecting the RlucII Renilla luciferase (donor) and GFP10 or rGFP (acceptor) light emissions, respectively.” left out
as §2

In the case of `CC[C@H](C)[C@H](NC(=O)[C@@H]1CCCN1C(=O)[C@H](Cc1c[nH]cn1)NC(=O)[C@@H](NC(=O)[C@H](Cc1ccc(O)cc1)NC(=O)[C@@H](NC(=O)[C@H](CCCNC(=N)N)NC(=O)CNC)C(C)C)[C@@H](C)CC)C(=O)O` [SI, [Sar^1, IIe^8]-AngII], the “β-arrestin2 trafficking to endosomes with receptors, compared to AngII” value (AT1R [1]; 40 min) is reported as “weakly promoted”, the “impact of Gq inhibition on ligand-mediated Rho activation” value (shortened to “impact of Gq inhibition”) (AT1R [2]) is reported as “reduced efficacy and a rightward-shifted potency” and the “time to maximal AT1R internalization into endosomes” value (AT1R [3]; 100 nM SI or 1 μM DVG) is reported as 20 min. For the same molecule, the “less efficacious than AngII at promoting AT1R concentration in early endosomes” value (AT1R [3]; 100 nM SI or 1 μM DVG vs 100 nM AngII) was 20%, the “receptor accumulation in endosomes, compared to AngII” value (AT1R [3]; 40 min) was “promoted less receptor accumulation in endosomes” and the “time at which BRET signal plateaued” value (AT1R [4]) was 10 min.
With `CCOc1ccc2c(c1)C1(CCC(OCCN3CCOCC3)CC1)C(=O)N2S(=O)(=O)c1ccc(C(=O)NC(C)(C)C)cc1OC` (centres unmarked) [SR121463] the “PC-mediated rescue of cell surface expression” value [5] was “PC-mediated rescue”.
With `CNCC(=O)N[C@@H](CCCN=C(N)N)C(=O)N[C@H](C(=O)N[C@@H](Cc1ccc(O)cc1)C(=O)N[C@H](C(=O)N[C@@H](Cc1cnc[nH]1)C(=O)N1CCC[C@H]1C(=O)N[C@@H](C)C(=O)O)C(C)C)C(C)C` [Saralasin] the “impact of Gq inhibition” value (AT1R [2]) was “did not affect”.
With `CC[C@H](C)[C@H](NC(=O)[C@H](Cc1ccc(O)cc1)NC(=O)[C@@H](NC(=O)[C@H](CCCNC(=N)N)NC(=O)CNC)C(C)C)C(=O)N[C@@H](Cc1cnc[nH]1)C(=O)N1CCC[C@H]1C(=O)N[C@H](C)C(=O)O` [TRV, [Sar1-D-Ala8] AngII] the “impact of Gq inhibition” value (AT1R [2]) was “did not affect”.
In the case of `CO/C1=C\C(C)=C\[C@@H](C)[C@@H](O)[C@@H](C)C/C(C)=C/C=C/[C@H](OC)[C@@H]([C@@H](C)[C@@H](O)[C@H](C)[C@@]2(O)C[C@@H](O)[C@H](C)[C@@H](C(C)C)O2)OC1=O` [bafilomycin A], the “effect on agonist-mediated accumulation of AT1R in endosomes” value (AT1R [3]; AngII 40 min) is reported as “increased”.
With `OC[C@H]1O[C@@](CO)(O[C@H]2O[C@H](CO)[C@@H](O)[C@H](O)[C@H]2O)[C@@H](O)[C@@H]1O` [sucrose] the “effect on AngII-induced BRET response in the endosomes (β-arrestin2)” value (AT1R [1]; 0.45 M sucrose 20 min) was “efficiently blocked”, the “effect on AngII-induced BRET response in the endosomes (receptor)” value (AT1R [3]; 0.45 M sucrose 20 min) was “efficiently blocked” and the “effect on AngII-induced BRET response at the plasma membrane” value (AT1R [6]) was “efficiently blocked”.
For [Sar1-Val5-D-Phe8] AngII [SVdF], the “impact of Gq inhibition” value (AT1R [2]) was “reduced efficacy and a rightward-shifted potency”.
